Laboratory results as given in patent US9204653B2, “5-fluoro pyrimidine derivatives” (DOW AGROSCIENCES LLC, priority 2008, dated 2015).
Like-named read-outs stand apart in the source and are kept apart here.

Test system: Mycosphaerella graminicola; Anamorph: Septoria tritici; Bayer Code SEPTTR
Test: Leaf blotch of wheat, foliar fungicide treatment, one day protectant (1DP) or three day curative (3DC)
Assay type: in vivo, Septoria tritici on wheat plants (variety Yuma)
Conditions: Zymoseptoria tritici; for pest or weed control at 50 ppm / pest or weed control at 200 ppm: % disease control rating
[1] = 24 h, one day protectant (1DP), 25 ppm, rating of percent disease control, read-out: SETTTR 1DP 25 ppm
[2] = 24 h, one day protectant (1DP), rating of percent disease control, read-out: SEPTTR 1DP 100 ppm
[3] = 72 h, three day curative (3DC), 25 ppm, rating of percent disease control, read-out: SEPTTR 3DC 25 ppm
[4] = 72 h, three day curative (3DC), rating of percent disease control, read-out: SEPTTR 3DC 100 ppm
[5] = 72 h, three day curative (3DC), 25 ppm, percent disease control rating, read-out: SEPTTR 3DC 25 ppm
[6] = 72 h, three day curative (3DC), percent disease control rating, read-out: SEPTTR 3DC 100 ppm
[7] = 24 h, one day protectant, 25 ppm, rating of percent disease control, read-out: SETTTR 1DP 25 ppm
[8] = 24 h, one day protectant, rating of percent disease control, read-out: SEPTTR 1DP 100 ppm
[9] = 72 h, three day curative, 25 ppm, rating of percent disease control, read-out: SEPTTR 3DC 25 ppm
[10] = 72 h, three day curative, rating of percent disease control, read-out: SEPTTR 3DC 100 ppm
[11] = 24 h, one day protectant (1DP), 25 ppm (first 1DP column), percent control rating, read-out: SETTTR 1DP 25 ppm
[12] = 24 h, one day protectant (1DP), 25 ppm as printed (second 1DP column), percent control rating, read-out: SETTTR 1DP 25 ppm
[13] = 72 h, three day curative (3DC), 25 ppm, percent control rating, read-out: SEPTTR 3DC 25 ppm
[14] = 72 h, three day curative (3DC), percent control rating, read-out: SEPTTR 3DC 100 ppm

SMILES: COc1ccc(COc2ncc(F)c(NC(=S)Nc3ccccc3F)n2)cc1F [Compound 769]
- pest or weed control at 25 ppm [1]: 51 to 75%
- pest or weed control at 100 ppm [2]: 76 to 100%
- pest or weed control at 25 ppm [3]: 0 to 25%
- pest or weed control at 100 ppm [4]: 76 to 100%

SMILES: CCN(/C=N/c1nc(O)ncc1F)CC [Compound 1131]
- pest or weed control at 25 ppm (24 h, one day protectant (1DP), 25 ppm (first 1DP column), percent disease control rating, read-out: SETTTR 1DP 25 ppm): 76 to 100%
- pest or weed control at 25 ppm (24 h, one day protectant (1DP), 25 ppm as printed (second 1DP column), percent disease control rating, read-out: SETTTR 1DP 25 ppm): 76 to 100%
- pest or weed control at 25 ppm [5]: 76 to 100%
- pest or weed control at 100 ppm [6]: 76 to 100%

SMILES: CC[Si](CC)(CC)Nc1nc(Oc2ccc(OC)cc2)ncc1F [Compound 605]
- pest or weed control at 25 ppm [7]: 51 to 75%
- pest or weed control at 100 ppm [8]: 76 to 100%
- pest or weed control at 25 ppm [9]: 0 to 25%
- pest or weed control at 100 ppm [10]: 76 to 100%

SMILES: Fc1ccc(COc2ncc(F)c(NCc3ccc(Cl)nc3)n2)cc1 [Compound 901]
- pest or weed control at 50 ppm (24 h, one day protectant): 51 to 75%
- pest or weed control at 200 ppm (24 h, one day protectant): 76 to 100%

SMILES: COc1ccccc1COc1ncc(F)c(NC(=O)OCc2ccccc2)n1 [Compound 415]
- pest or weed control at 25 ppm [1]: 51 to 75%
- pest or weed control at 100 ppm [2]: 76 to 100%
- pest or weed control at 25 ppm [3]: 76 to 100%
- pest or weed control at 100 ppm [4]: 76 to 100%

SMILES: Fc1cnc(OCc2cccs2)nc1/N=C/N1CCOCC1 [Compound 369]
- pest or weed control at 25 ppm [1]: 76 to 100%
- pest or weed control at 100 ppm [2]: 76 to 100%
- pest or weed control at 25 ppm [3]: 76 to 100%
- pest or weed control at 100 ppm [4]: 76 to 100%

SMILES: COc1ccc(COc2ncc(F)c(NC(=O)NCc3ccccc3F)n2)cc1F [Compound 464]
- pest or weed control at 25 ppm [1]: 0 to 25%
- pest or weed control at 100 ppm [2]: 0 to 25%
- pest or weed control at 25 ppm [3]: 0 to 25%
- pest or weed control at 100 ppm [4]: 26 to 50%

SMILES: Fc1ccc(COc2ncc(F)c(/N=N/c3ccc(Cl)c(Cl)c3)n2)cc1 [Compound 1090]
- pest or weed control at 25 ppm [11]: 0 to 25%
- pest or weed control at 25 ppm [12]: 0 to 25%
- pest or weed control at 25 ppm [13]: 26 to 50%
- pest or weed control at 100 ppm [14]: 26 to 50%

SMILES: Nc1nc(OCc2cccnc2Cl)ncc1F [Compound 580]
- pest or weed control at 25 ppm [7]: 51 to 75%
- pest or weed control at 100 ppm [8]: 76 to 100%
- pest or weed control at 25 ppm [9]: 0 to 25%
- pest or weed control at 100 ppm [10]: 51 to 75%

SMILES: CCc1ccccc1NNc1nc(OCc2ccc(F)cc2)ncc1F [Compound 667]
- pest or weed control at 25 ppm [7]: 0 to 25%
- pest or weed control at 100 ppm [8]: 76 to 100%
- pest or weed control at 25 ppm [9]: 0 to 25%
- pest or weed control at 100 ppm [10]: 76 to 100%

SMILES: Nc1nc(OCc2ccc(C(F)(F)F)nc2)ncc1F [Compound 184]
- pest or weed control at 25 ppm [1]: 76 to 100%
- pest or weed control at 100 ppm [2]: 76 to 100%
- pest or weed control at 25 ppm [3]: 51 to 75%
- pest or weed control at 100 ppm [4]: 76 to 100%

SMILES: N=C(NO)Nc1nc(OCc2ccccc2)ncc1F [Compound 964, 1-[2-(Benzyloxy)-5-fluoropyrimidin-4-yl]-3-hydroxyguanidine]
- pest or weed control at 25 ppm [11]: 0 to 25%
- pest or weed control at 25 ppm [12]: 0 to 25%
- pest or weed control at 25 ppm [13]: 0 to 25%
- pest or weed control at 100 ppm [14]: 26 to 50%

SMILES: COc1cccc(COc2ncc(F)c(NC(=O)Cc3ccccc3)n2)c1 [Compound 773]
- pest or weed control at 25 ppm [1]: 26 to 50%
- pest or weed control at 100 ppm [2]: 76 to 100%
- pest or weed control at 25 ppm [3]: 0 to 25%
- pest or weed control at 100 ppm [4]: 0 to 25%

SMILES: COc1cccc(COc2ncc(F)c(NN3CCCCC3)n2)c1 [Compound 562]
- pest or weed control at 25 ppm [7]: 0 to 25%
- pest or weed control at 100 ppm [8]: 0 to 25%
- pest or weed control at 25 ppm [9]: 0 to 25%
- pest or weed control at 100 ppm [10]: 26 to 50%

SMILES: N#Cc1cc(COc2ncc(F)c(N)n2)ccn1 [Compound 437]
- pest or weed control at 25 ppm [1]: 0 to 25%
- pest or weed control at 100 ppm [2]: 51 to 75%
- pest or weed control at 25 ppm [3]: 0 to 25%
- pest or weed control at 100 ppm [4]: 51 to 75%

SMILES: CCOCCOc1cccc(COc2ncc(F)c(NC(C)=O)n2)c1 [Compound 884]
- pest or weed control at 50 ppm (24 h, one day protectant): 76 to 100%
- pest or weed control at 200 ppm (24 h, one day protectant): 76 to 100%

SMILES: Nc1nc(OCCc2cccc(C(F)(F)F)c2)ncc1F [Compound 129]
- pest or weed control at 25 ppm (24 h, one day protectant (1DP), 25 ppm, percent disease control rating, read-out: SETTTR 1DP 25 ppm): 26 to 50%
- pest or weed control at 100 ppm (24 h, one day protectant (1DP), percent disease control rating, read-out: SEPTTR 1DP 100 ppm): 76 to 100%
- pest or weed control at 25 ppm [5]: 76 to 100%
- pest or weed control at 100 ppm [6]: 76 to 100%

SMILES: Cc1ccc(COc2ncc(F)c(NCc3ccc4c(c3)OCO4)n2)cc1 [Compound 854]
- pest or weed control at 50 ppm (24 h, one day protectant): 51 to 75%
- pest or weed control at 200 ppm (24 h, one day protectant): 76 to 100%

SMILES: Fc1cnc(OCC(F)(F)F)nc1NCc1ccc(Cl)nc1 [Compound 915]
- pest or weed control at 50 ppm (24 h, one day protectant): 0 to 25%
- pest or weed control at 200 ppm (24 h, one day protectant): 0 to 25%
